Reference: patent US12707888B2, “Asymmetric donor-acceptor molecular dyes” (THE UNIVERSITY OF NORTH CAROLINA AT CHARLOTTE, priority 2019, dated 2026)

Experiments:
[1] = UV-Vis absorbance, fluorescence emission and quantum yield in organic solvents; format: physicochemical
Protocol: The absorption, emission, and fluorescence lifetime characteristics of all four TTz dyes were recorded in a variety of organic solvents (FIGS. 7A-7B, Table of FIG. 8). Additionally, HOMO/LUMO levels of the TTz dyes were determined computationally in Spartan 16 using B3LYP/6-31g. Molar absorptivities of all the TTz dyes ranged from 13,000 to 86,000 cm^−1M^−1. […] However, the peak absorbance of Bu2N-TTz-Py in DCM was slightly red-shifted as compared to that of Ph2N-TTz-Py (λmax, abs=429 nm vs λmax, abs=422 nm in DCM), which is attributed to the diphenylamine moiety having weaker donor characteristics. […] Due to the low estimated ground state dipole moments of the TTz dyes (μ=6-8 D), their wavelengths of absorbance remained relatively solvent independent (st. dev.=±11 nm).
4-pyridine carboxaldehyde, 4-(dibutylamino)benzaldehyde, 4-(diphenylamino)benzaldehyde, terephthalaldehyde, dithiooxamide, and all solvents used for spectroscopic measurements were purchased from Sigma-Aldrich and used without further purification. ^1H and ^13CNMR measurements were obtained with either a JEOL 300 MHz NMR or a JEOL 500 MHz NMR. High resolution mass spectra were obtained using a Thermo Fisher Scientific MSQ Plus Single Quadrupole Mass Spectrometer. Solution-state UV-Vis spectra were collected on a Cary 300 UV-Vis spectrophotometer. Time-resolved measurements were taken on a Jobin Yvon-Spex Fluorolog equipped with a 389 nm diode laser for time-resolved PL decay measurements. Igor Pro 6.3 software was used to fit PL(t) decay data to single/multiple exponential decays. Quantum yields were calculated using 9,10-diphenylanthracene as a reference (quantum yield [ΦF] in cyclohexane=0.97).^40-41 Density functional theory (DFT) calculations were performed with Spartan computational software using B3LYP^42-43 density functional and 6-31G*^44 basis set. Temperature studies were conducted using a 10 μM Bu2N-TTz-Py MeTHF solution placed inside of a Norrell 502 NMR tube and sequentially submerged in the following liquid N2 baths:octanol (−16° C.), acetonitrile (−41° C.), acetone (−94° C.), pentane (−131° C.), MeTHF (−136° C.), and liquid N2 itself (−196° C.). The phosphorescence spectrum of Bu2N-TTz-Py (see S2) was collected similarly at −196° C. by pumping with 389 nm light while inside a liquid nitrogen bath and then probing the emission within 2 sec of removing from the bath. Human embryonic kidney cells (HEK 293T) were a kind gift from Prof. Bryan Dickinson, and Mouse macrophage J774A.1 cells were a kind gift from Prof. Deborah Nelson at the University of Chicago. Cells were cultured in Dulbecco's Modified Eagle's Medium (Invitrogen Corporation, USA) containing 10% heat inactivated Fetal Bovine Serum (FBS) (Invitrogen Corporation, USA), 100 U/mL penicillin, and 100 μg/mL streptomycin. Cells were maintained at 37° C. under 5% CO2.

HEK 293T cells = assay: Annexin V-Cy5 cytotoxicity; format: cell-based, Human; conditions: 500 nM dye for 15 min
Protocol: FIG. 12C provides Annexin V-Cy5 staining of HEK 293T cells incubated with DMSO (Veh.), VF2.1.Cl, and Bu2N-TTz-Py. Apoptosis for control (incubated cells 65° C., 10 min). Percentages of cytotoxicity were calculated as number of 100×Cy5 positive cells per number of nuclei stained. Error bars represent S.E.M. of three independent experiments, n=250 cells. Scale bars=10 μm.
Lastly, the cellular toxicities of Bu2N-TTz-Py and VF2.1.Cl were characterized using Annexin V-Cy5 staining of phosphatidylserine. HEK 293T cells were labelled with Bu2N-TTz-Py or VF2.1.Cl for 15 min, incubated with Annexin V-Cy5 for 20 min in the dark, washed, and fixed with 4% paraformaldehyde before imaging. As a positive control, apoptosis was induced via high-temperature incubation (65° C., 10 min).
Cellular localization: Time-lapse imaging was performed to probe the membrane localization of Bu2N-TTz-Py at longer time scale. […] Intensity values at plasma membrane (IPM) were calculated by drawing regions of interest (ROI) around the whole cell and subtracting intracellular intensity (IIM, ROI drawn within the cell) for Bu2N-TTz-Py and CellMask images, respectively. […] Cytotoxicity percentage is calculated as number of Annexin V-Cy5 positive cells to total number of nuclear stained cells. Number of cells quantification were performed using Analyze particle function of ImageJ program.

CCCCN(CCCC)c1ccc(-c2nc3sc(-c4ccncc4)nc3s2)cc1 [Bu2N-TTz-Py, 2-(N,N-dibutyl-4-aminophenyl)-5-(4-pyridyl) thiazolo[5,4-d]thiazole]
quantum yield ΦMeOH ([1]; MeOH, reference 9,10-diphenylanthracene): 0.04 | QY in aqueous environments ([1]; aqueous environments): low QY | quantum yield Φhex ([1]; hex, reference 9,10-diphenylanthracene): 0.93 | peak absorbance λmax, abs ([1]; in DCM): 429 nm | cytotoxicity (Annexin V-Cy5 staining) (HEK 293T cells): insignificant cytotoxicity
